Data as given in ChEMBL document CHEMBL1142791, “Design, synthesis, and evaluation of 2-phenoxy-indan-1-one derivatives as acetylcholinesterase inhibitors” (Bioorg Med Chem Lett, 2005).

Experiments:
Acetylcholinesterase = biological target: T1, Acetylcholinesterase (Rattus norvegicus, UniProt P37136)
T1 sequence (P37136 whole entry): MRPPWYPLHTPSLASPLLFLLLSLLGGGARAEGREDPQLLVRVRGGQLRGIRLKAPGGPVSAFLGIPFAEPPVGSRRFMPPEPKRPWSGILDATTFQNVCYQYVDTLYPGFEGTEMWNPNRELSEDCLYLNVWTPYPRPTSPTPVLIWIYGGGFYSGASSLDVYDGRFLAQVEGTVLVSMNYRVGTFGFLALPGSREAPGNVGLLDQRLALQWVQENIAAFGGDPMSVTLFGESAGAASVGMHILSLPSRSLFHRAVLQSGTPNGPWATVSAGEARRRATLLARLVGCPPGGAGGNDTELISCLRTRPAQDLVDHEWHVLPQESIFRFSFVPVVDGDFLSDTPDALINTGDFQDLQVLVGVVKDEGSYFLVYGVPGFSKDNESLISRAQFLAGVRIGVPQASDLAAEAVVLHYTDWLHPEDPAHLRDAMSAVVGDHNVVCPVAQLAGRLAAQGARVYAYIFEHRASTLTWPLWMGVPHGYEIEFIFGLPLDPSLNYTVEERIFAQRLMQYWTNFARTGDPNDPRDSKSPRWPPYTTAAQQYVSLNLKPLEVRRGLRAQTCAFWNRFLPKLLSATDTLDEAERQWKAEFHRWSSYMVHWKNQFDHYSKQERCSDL
Description: In vitro inhibitory concentration against rat cortex acetylcholinesterase

Butyrylcholinesterase = Butyrylcholinesterase (Rattus norvegicus, UniProt Q9JKC1); assay: In vitro inhibitory concentration against butyrylcholinesterase was determined using rat serum homogenate
Chain of Butyrylcholinesterase (Q9JKC1 whole entry): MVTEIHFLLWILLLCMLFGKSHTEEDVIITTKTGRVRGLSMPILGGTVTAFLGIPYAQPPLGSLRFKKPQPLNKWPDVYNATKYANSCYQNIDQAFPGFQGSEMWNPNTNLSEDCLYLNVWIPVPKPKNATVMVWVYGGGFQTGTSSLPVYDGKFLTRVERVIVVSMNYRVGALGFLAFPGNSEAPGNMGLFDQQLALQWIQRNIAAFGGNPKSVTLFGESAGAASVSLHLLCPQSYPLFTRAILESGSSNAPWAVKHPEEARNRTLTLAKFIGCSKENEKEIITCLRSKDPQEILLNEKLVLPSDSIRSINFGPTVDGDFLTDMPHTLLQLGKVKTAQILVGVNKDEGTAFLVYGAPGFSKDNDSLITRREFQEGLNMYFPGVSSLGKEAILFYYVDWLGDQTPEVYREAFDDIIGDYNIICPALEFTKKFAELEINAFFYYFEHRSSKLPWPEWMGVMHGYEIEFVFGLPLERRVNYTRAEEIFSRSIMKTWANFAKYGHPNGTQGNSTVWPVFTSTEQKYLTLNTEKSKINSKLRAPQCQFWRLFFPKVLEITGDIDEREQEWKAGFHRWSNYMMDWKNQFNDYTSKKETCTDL

Compound	IC50 (Acetylcholinesterase) [µM]	IC50 (Butyrylcholinesterase) [µM]
COc1cc2c(cc1OC)C(=O)C(Oc1ccc(CN3CCOCC3)cc1)C2 (stereo not drawn)	1.3	384
CCN(CC)Cc1cccc(OC2Cc3cc(OC)c(OC)cc3C2=O)c1 (stereo not drawn)	2.28	190
COc1cc2c(cc1OC)C(=O)C(Oc1ccc(CN3CCN(C)CC3)cc1)C2 (stereo not drawn)	1.42	347
COc1cc2c(cc1OC)C(=O)C(Oc1ccc(CN(C)C)cc1)C2 (stereo not drawn)	0.21	1980
COc1cc2c(cc1OC)C(=O)C(Oc1ccc(C(C)N3CCCC3)cc1)C2 (stereo not drawn)	0.14	130
CCN(CC)C(C)c1cccc(OC2Cc3cc(OC)c(OC)cc3C2=O)c1 (stereo not drawn)	1.36	199
COc1cc2c(cc1OC)C(=O)C(Oc1cccc(CN3CCCC3)c1)C2 (stereo not drawn)		39.5
CCN(CC)C(C)c1ccc(OC2Cc3cc(OC)c(OC)cc3C2=O)cc1 (stereo not drawn)	0.22	234
COc1cc2c(cc1OC)C(=O)C(Oc1ccc(C(C)N3CCN(C)CC3)cc1)C2 (stereo not drawn)	2.98	393
COc1cc2c(cc1OC)C(=O)C(Oc1cccc(C(C)N3CCCCC3)c1)C2 (stereo not drawn)	3.58	158
COc1cc2c(cc1OC)C(=O)C(Oc1cccc(C(C)N3CCCC3)c1)C2 (stereo not drawn)	1.96	212
COc1cc2c(cc1OC)C(=O)C(Oc1cccc(C(C)N3CCOCC3)c1)C2 (stereo not drawn)		247
COc1cc2c(cc1OC)C(=O)C(Oc1cccc(CN3CCN(C)CC3)c1)C2 (stereo not drawn)	6.41	209
COc1cc2c(cc1OC)C(=O)C(Oc1cccc(CN3CCOCC3)c1)C2 (stereo not drawn)		219
COc1cc2c(cc1OC)C(=O)C(Oc1ccc(CN3CCCCC3)cc1)C2 (stereo not drawn)	0.15	262
COc1cc2c(cc1OC)C(=O)C(Oc1cccc(C(C)N(C)C)c1)C2 (stereo not drawn)	0.82	288
CCN(CC)Cc1ccc(OC2Cc3cc(OC)c(OC)cc3C2=O)cc1 (stereo not drawn)	0.1	251
COc1cc2c(cc1OC)C(=O)C(Oc1ccc(C(C)N3CCCCC3)cc1)C2 (stereo not drawn)	0.13	176
COc1cc2c(cc1OC)C(=O)C(Oc1ccc(CN3CCCC3)cc1)C2 (stereo not drawn)	0.05	84.3
COc1cc2c(cc1OC)C(=O)C(Oc1ccc(C(C)N(C)C)cc1)C2 (stereo not drawn)		1370
COc1cc2c(cc1OC)C(=O)C(Oc1cccc(CN(C)C)c1)C2 (stereo not drawn)		207
COc1cc2c(cc1OC)C(=O)C(Oc1ccc(C(C)N3CCOCC3)cc1)C2 (stereo not drawn)	3.14	346
COc1cc2c(cc1OC)C(=O)C(Oc1cccc(CN3CCCCC3)c1)C2 (stereo not drawn)	3.18	55.5
COc1cc2c(cc1OC)C(=O)C(Oc1cccc(C(C)N3CCN(C)CC3)c1)C2 (stereo not drawn)	17.6	252
